Experimental findings from patent US10800789B2, “Antiviral compounds” (Gilead Pharmasset LLC, priority 2012, dated 2020) are described below.

Molecules are shown by their SMILES. Like-named read-outs stand apart in the source and are kept apart here.

Experiment [1] concerns Q30R in genotype 1a NS5A (1a Pi-Rluc replicon, Huh-7-derived cured-51 cells). As to the kind of experiment: Replicon assay against resistance mutant 1a Q30R. It counts as cell-based, HCV. The following applies: Hepatitis C virus. The procedure: Antiviral potency (EC50) was determined using a Renilla luciferase (RLuc)-based HCV replicon reporter assay. To perform the assay for genotype 1 and 2a JFH-1, stable HCV 1a RLuc replicon cells (harboring a dicistronic genotype 1a H77 replicon that encodes a RLuc reporter), stable HCV 1b RLuc replicon cells (harboring a dicistronic genotype 1b Con1 replicon that encodes a RLuc reporter), or stable HCV 2a JFH-1 Rluc replicon cells (harboring a dicistronic genotype 2a JFH-1 replicon that encodes a RLuc reporter; with L31 present in NS5A) were dispensed into 384-well plates for EC50 assays. To perform the assay for genotype 2a (with M31 present in NS5A) or 2b, NS5A chimeric genotype 2a JFH-1 replicons that encodes a RLuc-Neo reporter and either genotype 2a J6 strain NS5A gene or genotype 2b MD2b-1 strain NS5A gene (both with M31 present) respectively, were either transiently transfected (t) into Huh-Lunet cells or were established as stably replicating replicon cells (s) is provided. Either cells were dispensed into 384-well plates for EC50 assays. To perform the assay for genotype 3 and 4, NS5A chimeric genotype 1b Con1 replicons that encodes a Pi-RLuc reporter and either genotype 3a S52 strain NS5A gene or genotype 4a ED43 strain NS5A gene respectively, were transiently transfected (t) into Huh-Lunet cells, which were subsequently dispensed into 384-well plates. Compounds were dissolved in DMSO at a concentration of 10 mM and diluted in DMSO either manually or using an automated pipeting instrument. Serially 3-fold diluted compounds were either manually mixed with cell culture media and added to the seeded cells or directly added to the cells using an automated instrument. DMSO was used as a negative (solvent; no inhibition) control, and the protease inhibitor ITMN-191 was included at a concentration>100×EC50 as a positive control. 72 hours later, cells were lysed and Renilla luciferase activity quantified as recommended by the manufacturer (Promega-Madison, Wis.). Non-linear regression was performed to calculate EC50 values.
To determine the antiviral potency (EC50) against resistance mutants, resistance mutations, including M28T, Q30R, Q30H, Q30E, L31M, Y93C, Y93H, and Y93N in genotype 1a NS5A, Y93H and L31V/Y93H in genotype 1b NS5A, and Y93H for in genotype 3a NS5A, were introduced individually into either 1a Pi-Rluc or 1b Pi-Rluc replicons by site directed mutagenesis. Replicon RNA of each resistant mutant was transiently transfected into Huh-7-derived cured-51 cells and antiviral potency was determined on these transfected cells as described above.

For experiment [2], the system named is NS5A chimeric genotype 1b Con1 replicon with genotype 3a S52 strain NS5A gene. As to the kind of experiment: Replicon assay, genotype 3a NS5A chimera. The following applies: Hepatitis C virus. The experiment is classed as cell-based, HCV.
Experiment [3] concerns NS5A chimeric genotype 2a JFH-1 replicon with genotype 2a J6 strain NS5A gene (M31 present). As to the kind of experiment: Replicon assay, genotype 2a J6 NS5A chimera. It counts as cell-based, HCV. The conditions noted are these: Hepatitis C virus. In short, it runs like this: (§1)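 First, 3-fold serial dilutions of compound went onto replicon cells, DMSO serving as no-inhibition control and ITMN-191 at >100×EC50 as positive control. Next came 72 h incubation, lysis and Renilla luciferase measurement. Finally, EC50 was calculated by non-linear regression; replicons covered genotypes 1a H77, 1b Con1, 2a JFH-1 (L31) and J6-NS5A chimera (M31).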

For experiment [4], the system named is stable HCV 1b RLuc replicon cells (dicistronic genotype 1b Con1 replicon). As to the kind of experiment: Renilla luciferase HCV replicon reporter assay, genotype 1b. The conditions noted are these: Hepatitis C virus, 72 h, stable 1b Con1 RLuc replicon cells, 72 hours; read-out: 1b. The experiment is classed as cell-based. The method, boiled down:
as §1

The subject of experiment [5] is NS5A chimeric genotype 2a JFH-1 replicon with genotype 2b MD2b-1 strain NS5A gene (M31 present). As to the kind of experiment: Replicon assay, genotype 2b NS5A chimera. It counts as cell-based, HCV. The conditions noted are these: Hepatitis C virus. In short, it runs like this:
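EC50 was fitted by non-linear regression to Renilla luciferase signal after 72 h of exposure to 3-fold serially diluted compound (10 mM DMSO stocks). Controls were DMSO (none) and ITMN-191 above 100×EC50 (full). Chimeric 2a replicons were used either stable or transiently transfected into Huh-Lunet cells.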
In general terms: A replicon is a self-replicating genome or part of one, used to study replication in cells.

The test system of experiment [6] is stable HCV 1a RLuc replicon cells (dicistronic genotype 1a H77 replicon). The experiment can be described thus: Renilla luciferase HCV replicon reporter assay, genotype 1a. The conditions noted are these: Hepatitis C virus, 72 h, stable 1a H77 RLuc replicon cells. It counts as cell-based. In short, it runs like this:
as §1

The test system of experiment [7] is NS5A chimeric genotype 1b Con1 replicon with genotype 4a ED43 strain NS5A gene. The experiment can be described thus: Replicon assay, genotype 4a NS5A chimera. The experiment is classed as cell-based, HCV. The following applies: Hepatitis C virus.
Experiment [8] deals with stable HCV 2a JFH-1 Rluc replicon cells (L31 present in NS5A). As to the kind of experiment: Renilla luciferase HCV replicon reporter assay, genotype 2a JFH-1. The experiment is classed as cell-based. The conditions noted are these: Hepatitis C virus. In short, it runs like this:
as §1

Setting [9] is: read-out: 3a (s) (nM), genotype 3a NS5A chimeric replicon, stable replicon cells (s).
[10] abbreviates: read-out: 3a (s), (s), activity range.
The mark [11] stands for this setting: read-out: 3a (t) (nM), genotype 3a NS5A chimeric replicon, transiently transfected (t).
Where [12] appears, read: read-out: 3a (t), transiently transfected (t) into Huh-Lunet cells, activity range.
[13] abbreviates: read-out: 2a J6 (t) (nM), genotype 2a J6 NS5A chimeric replicon (M31), transiently transfected (t) into Huh-Lunet cells.
[14] abbreviates: read-out: 2a J6 (t), transiently transfected (t) into Huh-Lunet cells, activity range.
[15] abbreviates: 2BS, read-out: 2b (s), stably replicating replicon cells (s), activity range.
[16] abbreviates: read-out: 2b (s) (nM), genotype 2b MD2b-1 NS5A chimeric replicon (M31), stably replicating replicon cells (s).
[17] abbreviates: read-out: 4a (s) (nM), genotype 4a NS5A chimeric replicon, stable replicon cells (s).
The mark [18] stands for this setting: read-out: 4a (s), (s), activity range.
Setting [19] is: read-out: 2a JFH (nM), genotype 2a JFH-1 replicon (L31 in NS5A), stable cells.
The mark [20] stands for this setting: read-out: 2a JFH, stable 2a JFH-1 Rluc replicon cells, L31 in NS5A, activity range.
[21] abbreviates: read-out: 2b (t) (nM), genotype 2b MD2b-1 NS5A chimeric replicon (M31), transiently transfected (t).
[22] abbreviates: read-out: 2b (t), transiently transfected (t) into Huh-Lunet cells, activity range.

Regarding `COC(=O)N[C@H](C(=O)N1[C@@H](C)CC[C@H]1c1nc(C)c(-c2ccc3c(c2)COc2cc4c(ccc5nc([C@@H]6CC[C@H](C)N6C(=O)[C@@H](NC(=O)OC)[C@@H](C)OC)[nH]c54)cc2-3)[nH]1)[C@@H](C)OC` [GD, Methyl [(2S,3R)-3-methoxy-1-{(2S,5S)-2-[9-(2-{(2S,5S)-1-[N-(methoxycarbonyl)-O-methyl-L-threonyl]-5-methylpyrrolidin-2-yl}-4-methyl-1H-imidazol-5-yl)-1,11-dihydroisochromeno[4′,3′:6,7]naphtho[1,2-d]imidazol-2-yl]-5-methylpyrrolidin-1-yl}-1-oxobutan-2-yl]carbamate], the EC50 is 0.1 to 0.999 nM in experiment [1] (read-out: 1a Q30R); 0.105 nM in experiment [1] (read-out: 1a Q30R (nM)); 0.07 nM in experiment [2] (setting [9]); under 0.1 nM in experiment [2] (setting [10]); 0.042 nM in experiment [2] (setting [11]); under 0.1 nM in experiment [2] (setting [12]). Besides, the EC50 in experiment [3] (setting [13]) is 0.04 nM; in experiment [3] (setting [14]), under 0.1 nM; in experiment [4], 27 pM; in experiment [5] (setting [15]), under 0.1 nM; in experiment [5] (setting [16]), 0.09 nM; in experiment [6], 19 pM. In addition, the EC50 in experiment [6] (activity range) is under 100 pM; in experiment [7] (setting [17]), 0.018 nM; in experiment [7] (setting [18]), under 0.1 nM; in experiment [8] (setting [19]) it was 0.035 nM; in experiment [8] (setting [20]) it was under 0.1 nM.

Regarding `COC[C@H]1C[C@@H](c2ncc(-c3ccc4c(c3)c(=O)oc3cc5c(ccc6nc([C@@H]7CC[C@H](C)N7C(=O)[C@@H](NC(=O)OC)C(C)C)[nH]c65)cc34)[nH]2)N(C(=O)[C@H](NC(=O)OC)c2ccccc2)C1` [GK, methyl {(1R)-2-[(2S,4S)-2-(5-{2-[(2S,5S)-1-{(2S)-2-[(methoxycarbonyl)amino]-3-methylbutanoyl}-5-methylpyrrolidin-2-yl]-11-oxo-1,11-dihydroisochromeno[4′,3′:6,7]naphtho[1,2-d]imidazol-9-yl}-1H-imidazol-2-yl)-4-(methoxymethyl)pyrrolidin-1-yl]-2-oxo-1-phenylethyl}carbamate], the EC50 in experiment [1] (read-out: 1a Q30R) was 0.1 to 0.999 nM; in experiment [1] (read-out: 1a Q30R (nM)), 0.111 nM; in experiment [2] (setting [9]), 0.156 nM; in experiment [2] (setting [10]) it was 0.1 to 0.999 nM; in experiment [3] (setting [13]), 0.071 nM; in experiment [3] (setting [14]), under 0.1 nM. Further, the EC50 is 36 pM in experiment [4]; 0.1 to 0.999 nM in experiment [5] (setting [15]); 0.187 nM in experiment [5] (setting [16]); 0.087 nM in experiment [5] (setting [21]); under 0.1 nM in experiment [5] (setting [22]); 31 pM in experiment [6]. For the same molecule, the EC50 in experiment [6] (activity range) is under 100 pM; in experiment [7] (setting [17]), 0.028 nM; in experiment [7] (setting [18]), under 0.1 nM; in experiment [8] (setting [19]), 0.024 nM; in experiment [8] (setting [20]) it was under 0.1 nM.

Consider `CC[C@H]1C[C@@H](c2nc3ccc4cc5c(cc4c3[nH]2)OCc2cc(-c3cnc([C@@H]4CC[C@H](C)N4C(=O)[C@@H](NC(=O)OC)C(C)C)[nH]3)ccc2-5)N(C(=O)[C@@H](NC(=O)OC)C2CCOCC2)C1` [GV], for which the EC50 is under 0.1 nM in experiment [1] (read-out: 1a Q30R); 0.061 nM in experiment [1] (read-out: 1a Q30R (nM)); 0.042 nM in experiment [2] (setting [9]); under 0.1 nM in experiment [2] (setting [10]); 0.012 nM in experiment [3] (setting [13]); under 0.1 nM in experiment [3] (setting [14]). For the same molecule, the EC50 in experiment [4] is 27 pM; in experiment [5] (setting [15]), 0.1 to 0.999 nM; in experiment [5] (setting [16]), 0.112 nM; in experiment [6], 18 pM; in experiment [6] (activity range), under 100 pM; in experiment [7] (setting [17]) it was 0.016 nM. Further, the EC50 in experiment [7] (setting [18]) was under 0.1 nM; in experiment [8] (setting [19]) it was 0.008 nM; in experiment [8] (setting [20]), under 0.1 nM.

`CC[C@H]1CC[C@@H](c2ncc(-c3ccc4c(c3)COc3cc5c(ccc6nc([C@@H]7CC[C@H](C)N7C(=O)[C@@H](NC(=O)OC)[C@@H](C)OC)[nH]c65)cc3-4)[nH]2)N1C(=O)[C@@H](NC(=O)OC)C1CCOCC1` [HY]: the EC50 in experiment [1] (read-out: 1a Q30R) was under 0.1 nM; in experiment [1] (read-out: 1a Q30R (nM)), 0.046 nM; in experiment [2] (setting [9]), 0.052 nM; in experiment [2] (setting [10]) it was under 0.1 nM; in experiment [2] (setting [11]), 0.055 nM; in experiment [2] (setting [12]), under 0.1 nM. The EC50 is 0.026 nM in experiment [3] (setting [13]); under 0.1 nM in experiment [3] (setting [14]); 28 pM in experiment [4]; under 0.1 nM in experiment [5] (setting [15]); 0.049 nM in experiment [5] (setting [16]); 0.031 nM in experiment [5] (setting [21]). The EC50 in experiment [5] (setting [22]) was under 0.1 nM; in experiment [6], 15 pM; in experiment [6] (activity range), under 100 pM; in experiment [7] (setting [17]), 0.017 nM; in experiment [7] (setting [18]), under 0.1 nM; in experiment [8] (setting [19]), 0.015 nM. Further, in experiment [8] (setting [20]), the EC50 was under 0.1 nM.
